In article PMC10568461, “A pilot study of cerebral metabolism and serotonin 5-HT2A receptor occupancy in rats treated with the psychedelic tryptamine DMT in conjunction with the MAO inhibitor harmine” (Frontiers in Pharmacology, 2023):
Where “and” joins values, the source holds several entries; their conditions need not be identical. Equal values may be shown once. Read-outs that look alike come from different tables or passages of the source.

Experiments:
[1] = target: T1, MAO-A (Rattus norvegicus, UniProt P21396); design: method as in Maschauer et al., 2015; conditions: ref Maschauer et al., 2015; read-out: Apparent affinity (KD) at MAO-binding sites in living rat brain; cited from earlier work
T1 sequence (P21396 1-526): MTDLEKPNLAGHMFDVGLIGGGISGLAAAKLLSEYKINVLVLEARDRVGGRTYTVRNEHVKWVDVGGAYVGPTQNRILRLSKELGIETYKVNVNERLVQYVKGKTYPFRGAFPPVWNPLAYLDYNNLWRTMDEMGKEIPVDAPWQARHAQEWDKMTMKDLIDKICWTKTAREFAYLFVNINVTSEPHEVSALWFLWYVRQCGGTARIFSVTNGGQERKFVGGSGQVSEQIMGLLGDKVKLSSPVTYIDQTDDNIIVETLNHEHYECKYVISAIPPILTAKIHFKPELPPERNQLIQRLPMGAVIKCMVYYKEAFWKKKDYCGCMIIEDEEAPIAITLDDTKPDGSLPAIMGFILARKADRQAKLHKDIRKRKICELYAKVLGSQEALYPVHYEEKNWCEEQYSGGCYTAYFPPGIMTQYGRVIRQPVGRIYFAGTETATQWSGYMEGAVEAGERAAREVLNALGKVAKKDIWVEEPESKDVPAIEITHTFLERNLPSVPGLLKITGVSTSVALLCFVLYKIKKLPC

[2] = target: MAO-A; conditions: ref Maschauer et al., 2015; read-out: KD in vitro; cited from earlier work
[3] = target: T1, MAO-A; assay: Apparent affinity at MAO binding sites in living brain; type: in vivo
[4] = Brain concentrations of harmine, DMT and metabolites by UHPLC-MS after s.c. harmine and/or DMT; conditions: rat, subcutaneous
Experimental: Groups of (n = 6) rats received either saline, harmine (1 mg/kg), DMT (1 mg/kg), or harmine + DMT (1 mg/kg each) as subcutaneous injections, as indicated in Figure 1.
After 45 min, rats were sacrificed by decapitation, and the brains dissected into cerebellum and frontal cortex samples for radioactivity measurement and chemical analysis, thus 65 min after harmine + DMT.

[5] = tested on: rats; assay: Behavioural observations in treated rats; type: in vivo, rat; conditions: not systematically assessed
[6] = design: method as in ref Guan et al., 2001; Li et al., 2017; Wang et al., 2019; Brito-da-Costa et al., 2020; conditions: rats, 0.5 to 3.3 mg/kg i.v. and 20–40 mg/kg p.o.; ref Guan et al., 2001; Li et al., 2017; Wang et al., 2019; Brito-da-Costa et al., 2020; cited from earlier work
[7] = target: T1, MAO-A; assay: MAO-A inhibition in living brain inferred from cerebral 3-IAA; type: in vivo; conditions: Experiment 1, harmine 1 mg/kg with DMT; suggested by lower cerebral 3-IAA
[8] = tested on: brain glucose metabolism; assay: [^18F]FDG-PET of cerebral glucose metabolism (experiment 1); type: in vivo, rat; conditions: for [^18F]FDG-PET SUV normalized to whole-brain uptake (SUVglob): 1 mg/kg s.c.; for [^18F]FDG-PET SUV normalized to whole-brain uptake (SUVglob) / [^18F]FDG-PET glucose normalized SUV (SUVgluc): mean (SD)
Experimental: The dynamic PET recordings were histogrammed into six frames of 5 minutes each, and reconstructed with attenuation, decay, and scatter correction using the OSEM3D/SP-MAP algorithm (2 x OSEM iterations and 18 x MAP iterations) with a matrix size of 128 × 128 pixels, resulting in a final target resolution of 0.8 mm/pixel. Pre-processing of PET scans was performed using PMOD v4.2 (PMOD Technologies LLC, Zurich, Switzerland). The [^18F]FDG images were averaged across the six frames and then converted into standardized uptake values (SUV), whereupon the image was cropped to the head of the animal and automatically co-registered to a standard [^18F]FDG-PET template. We used Schiffer’s atlas ([Schiffer et al., 2006]) for parcellation of bilateral brain regions within the cortico-striato-thalamo-cortical (CSTC) circuit, i.e. bilateral nucleus accumbens (NAc), medial prefrontal cortex (mPFC), orbitofrontal cortex (OFC), hippocampus, striatum, thalamus, visual cortex, cerebellum as a comparator region, and whole brain. We selected these regions from the CSTC circuit based on a conceptual model holding that the thalamus acts as a filter/gatekeeper of sensory information, broadcasting to cortical regions that subserve conscious experience ([Wang et al., 2006]; [McAlonan et al., 2008]). Perturbation of this CSTC circuit is implicated in the action of psychedelic compounds ([Geyer and Vollenweider, 2008]; [Preller et al., 2019]). We scaled individual regional SUV results to the mean blood glucose levels measured during the recording session (SUVgluc) and to the global [^18F]FDG uptake (SUVglob).

[9] = tested on: 5-HT2A receptors; conditions: cited from earlier work

## Cc1nccc2c1[nH]c1cc(OCCF)ccc12 [[^18F]fluoroethyl-harmol]
[1]
  Kd: 0.3 µM
[2]
  Kd: 0.002 µM

## Cc1nccc2c1[nH]c1cc(OCC[18F])ccc12 [[^18F]fluoroethyl-harmol]
[3]; from values of ref Maschauer et al., 2015
  In vitro/in vivo affinity difference: 150 fold

## COc1ccc2c(c1)[nH]c1c(C)nccc12 [harmine]
[4]; brain, 1 mg/kg, Brain harmine concentration, at 100 min after treatment with 1 mg/kg
  concentration at 100 min: ~1 µM
[4]; brain, 1 mg/kg, Mean concentration in brain tissue, Experiment 1, after harmine alone (1 mg/kg)
  concentration at 95 min: 116 ng/g and 550 nM
[4]; brain, 3 mg/kg, Brain harmine concentration, at 70 min after the higher dose (3 mg/kg)
  concentration at 70 min: ~2 µM
[4]; brain, Mean brain concentration, Experiment 2, harmine + DMT (3 mg/kg each)
  concentration at 65 min: 424 ng/g and 2 µM
[4]; brain, Mean concentration in brain tissue, Experiment 1, after harmine + DMT (1 mg/kg each)
  concentration at 95 min: 257 ng/g and 1.21 µM
[4]; cerebellum, 1 mg/kg, Brain concentration, Experiment 1, cerebellum, group DMT (1 mg/kg s.c.), 95 min, mean (SD)
  concentration at 95 min: 13.6 ng/g
[4]; cerebellum, Brain concentration, Experiment 1, cerebellum, group Har (harmine 1 mg/kg s.c.), 95 min after drug, mean (SD)
  concentration at 95 min: 104 ng/g
[4]; cerebellum, Brain concentration, Experiment 1, cerebellum, group Har + DMT (1 mg/kg each s.c.), 95 min, mean (SD)
  concentration at 95 min: 189 ng/g
[4]; cerebellum, Brain concentration, Experiment 2, cerebellum, group Har + DMT (3 mg/kg each s.c.), 65 min, mean (SD)
  concentration at 65 min: 412 ng/g
[4]; frontal cortex, 1 mg/kg, Brain concentration, Experiment 1, frontal cortex, group DMT (1 mg/kg s.c.), 95 min, mean (SD)
  concentration at 95 min: 20.1 ng/g
[4]; frontal cortex, Brain concentration, Experiment 1, frontal cortex, group Har (harmine 1 mg/kg s.c.), 95 min, mean (SD)
  concentration at 95 min: 128 ng/g
[4]; frontal cortex, Brain concentration, Experiment 1, frontal cortex, group Har + DMT (1 mg/kg each s.c.), 95 min, mean (SD)
  concentration at 95 min: 326 ng/g
[4]; frontal cortex, Brain concentration, Experiment 2, frontal cortex, group Har + DMT (3 mg/kg each s.c.), 65 min, mean (SD)
  concentration at 65 min: 436 ng/g
[5]
  Behaviour and anesthesia requirement of treated rats: calmer and needed less isoflurane to sustain anesthesia
[6]
  Plasma half-life: 3.5 h
[7]
  Inhibition of MAO-A in living brain: 50%
[8]; 1 mg/kg, separately or in combination
  Qualitative effect on brain [^18F]FDG uptake (SUVglob maps): no conspicuous effects
[8]; 1 mg/kg, Z = −2.66, p = 0.047
  Thalamus SUVglob versus vehicle group (Dunn's post hoc test): significantly different from the vehicle group
[8]; NAc
  [^18F]FDG-PET SUV normalized to whole-brain uptake (SUVglob): 6.23 (0.18) SUV
[8]; NAc, 1 mg/kg
  [^18F]FDG-PET glucose normalized SUV (SUVgluc): 6.4 (1.05) SUV
[8]; OFC
  [^18F]FDG-PET SUV normalized to whole-brain uptake (SUVglob): 6.5 (0.44) SUV
[8]; OFC, 1 mg/kg
  [^18F]FDG-PET glucose normalized SUV (SUVgluc): 6.71 (1.33) SUV
[8]; cerebellum
  [^18F]FDG-PET SUV normalized to whole-brain uptake (SUVglob): 4.52 (0.15) SUV
[8]; cerebellum, 1 mg/kg
  [^18F]FDG-PET glucose normalized SUV (SUVgluc): 4.62 (0.67) SUV
[8]; hippocampus
  [^18F]FDG-PET SUV normalized to whole-brain uptake (SUVglob): 5.32 (0.23) SUV
[8]; hippocampus, 1 mg/kg
  [^18F]FDG-PET glucose normalized SUV (SUVgluc): 5.44 (0.77) SUV
[8]; mPFC
  [^18F]FDG-PET SUV normalized to whole-brain uptake (SUVglob): 7.09 (0.32) SUV
[8]; mPFC, 1 mg/kg
  [^18F]FDG-PET glucose normalized SUV (SUVgluc): 7.28 (1.18) SUV
[8]; striatum
  [^18F]FDG-PET SUV normalized to whole-brain uptake (SUVglob): 6.99 (0.12) SUV
[8]; striatum, 1 mg/kg
  [^18F]FDG-PET glucose normalized SUV (SUVgluc): 7.19 (1.21) SUV
[8]; thalamus
  [^18F]FDG-PET SUV normalized to whole-brain uptake (SUVglob): 6.54 (0.13) SUV
[8]; thalamus, 1 mg/kg
  [^18F]FDG-PET glucose normalized SUV (SUVgluc): 6.73 (1.15) SUV
[8]; visual cortex
  [^18F]FDG-PET SUV normalized to whole-brain uptake (SUVglob): 6.1 (0.24) SUV
[8]; visual cortex, 1 mg/kg
  [^18F]FDG-PET glucose normalized SUV (SUVgluc): 6.29 (1.15) SUV
[8]; whole brain, 1 mg/kg
  [^18F]FDG-PET glucose normalized SUV (SUVgluc): 5.69 (0.93) SUV
[3]; extrapolated from the 150-fold in vitro/in vivo difference of [^18F]fluoroethyl-harmol, read-out: Predicted apparent affinity for MAO-A in living brain
  Kd: ~0.3 µM

## CN(C)CCc1c[nH]c2cccc(OP(=O)(O)O)c12 [psilocybin]
[9]; PET with [^11C]Cimbi-36, ref Madsen et al., 2019
  Occupancy at 5-HT2A receptors: ≤ 70%
[9]; PET with [^18F]altanserin, ref Hasler et al., 2009a
  Occupancy at 5-HT2A receptors in human frontal cortex: ≤ 35%
